≈ marks a conversion by molar mass, not a printed value. Values belong to the compound of their own block, whether it stands above or below them.
Assays:
[1] = Solubility of the compound in water; type: physicochemical
K562 = assay: Antiproliferative activity against human K562 cells assessed as inhibition of cell proliferation incubated for 48 hrs by MTT assay; type: functional, cell-based; settings: K562, 48 h
[2] = Inhibition of N-terminal 6xHis SUMO-tagged human EED expressed in Escherichia coli BL21 (DE3)/FITC-labeled EZH2 (39 to 63 residues)(unknown origin) interaction incubated for 2 hrs by fluorescence polarization based competitive assay
[3] = Binding affinity to PRC2 (unknown origin) assessed as inhibition constant; set-up: species or system Homo sapiens
[4] = molecular target: T1, Histone-lysine N-methyltransferase EZH2 (Homo sapiens, UniProt Q15910); assay: Displacement of [3H-SAM] from EZH2 in PRC2 complex (unknown origin) incubated for 1 hr by […] assay
T1 sequence (Q15910 whole entry): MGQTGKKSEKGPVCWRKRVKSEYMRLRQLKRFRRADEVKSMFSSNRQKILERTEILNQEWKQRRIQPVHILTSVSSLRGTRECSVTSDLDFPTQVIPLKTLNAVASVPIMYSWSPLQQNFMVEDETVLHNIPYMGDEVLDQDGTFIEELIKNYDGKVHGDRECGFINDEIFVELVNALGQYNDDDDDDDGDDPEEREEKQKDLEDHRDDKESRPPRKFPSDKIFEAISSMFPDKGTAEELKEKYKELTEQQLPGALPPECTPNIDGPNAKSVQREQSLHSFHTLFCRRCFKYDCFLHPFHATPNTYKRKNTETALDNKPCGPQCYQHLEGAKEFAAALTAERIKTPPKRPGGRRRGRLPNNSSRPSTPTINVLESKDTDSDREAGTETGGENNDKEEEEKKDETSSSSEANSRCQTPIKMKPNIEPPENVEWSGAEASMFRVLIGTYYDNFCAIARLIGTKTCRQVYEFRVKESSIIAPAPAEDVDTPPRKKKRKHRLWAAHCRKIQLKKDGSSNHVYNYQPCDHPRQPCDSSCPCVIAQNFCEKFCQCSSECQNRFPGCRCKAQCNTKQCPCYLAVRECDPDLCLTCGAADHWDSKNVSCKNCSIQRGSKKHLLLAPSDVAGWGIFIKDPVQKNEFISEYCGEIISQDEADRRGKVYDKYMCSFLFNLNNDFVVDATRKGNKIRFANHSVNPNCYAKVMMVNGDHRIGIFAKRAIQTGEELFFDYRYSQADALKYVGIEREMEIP

Homo sapiens = species: Homo sapiens; assay: Selectivity ratio of IC50 for EZH1 (unknown origin) to IC50 for EZH2 (unknown origin)
PC-3 = assay: Antiproliferative activity against human PC-3 cells assessed as inhibition of cell proliferation incubated for 3 to 7 days followed by replacement of medium containing compound every 3 days by CCK8 assay; type: functional, cell-based
SK-OV-3 = assay: Antiproliferative activity against human SK-OV-3 cells assessed as inhibition of cell proliferation incubated for 3 to 7 days followed by replacement of medium containing compound every 3 days by CCK8 assay; type: functional, cell-based
[5] = molecular target: T1, Histone-lysine N-methyltransferase EZH2; assay: Inhibition of wild-type EZH2 in PRC2 complex (unknown origin) using monomethylated H3K27 as substrate by radiometric assay

Structure (SMILES): CCN(c1cc(-c2ccc(CN3CCOCC3)cc2)cc(C(=O)NCc2c(C)cc(C)[nH]c2=O)c1C)C1CCOCC1 [TAZEMETOSTAT]
solubility ([1]; buffer): 185.3 µg/mL (≈ 324 µM)
IC50 (K562): 59.2 µM

Structure (SMILES): Cc1cc(C)c(CNC(=O)c2cc(-c3ccc(CN4CCOCC4)cc3)cc3c2cnn3C2CCCC2)c(=O)[nH]1
Ki [3]: 0.024 µM

Structure (SMILES): Cc1cc(C)c(CNC(=O)c2c(C)cn(Cc3ccc(C(C(F)(F)F)(C(F)(F)F)C(F)(F)F)cc3)c2C)c(=O)[nH]1
IC50 (K562): 58.7 µM

Structure (SMILES): CC1=C(CC(=O)NCCc2c[nH]c3ccccc23)C(=O)OC2C(O)=C(O)C=CC12 (stereo unspecified)
IC50 (PC-3): 5.39 µM
IC50 (SK-OV-3): 7.86 µM

Structure (SMILES): CC[C@H](C)n1cc(C)c2c(C(=O)NCc3c(C)cc(C)[nH]c3=O)cc(-c3ccc(N4CCNCC4)nc3)cc21 [GSK2816126]
IC50 (PC-3): 10 µM
IC50 (SK-OV-3): 10.5 µM

Structure (SMILES): CCN(c1cc(-c2ccc(CN3CCN(C)CC3)cc2)cc(C(=O)NCc2c3c(c(C)[nH]c2=O)CCCC3)c1C)C1CCOCC1
solubility ([1]; water, read-out: solubility): 3 µg/mL (≈ 4.79 µM)

Structure (SMILES): Cc1ccc(C(C2=C(O)CC(C)(C)CC2=O)C2C(=O)CC(C)(C)CC2=O)s1 (stereo unspecified)
IC50 [2]: 63.9 µM

Structure (SMILES): COc1cc(C)[nH]c(=O)c1CNC(=O)c1cccc2c1cc(C)n2[C@H](C)C1CCOCC1
IC50 [5]: 0.0005 µM

Continued, values first:

IC50 [2]: 54.9 µM
Structure (SMILES): Cc1sc(NC(=O)CCCCC(=O)Nc2sc(C)c(C)c2C(N)=O)c(C(N)=O)c1C

IC50 [4]: 4.06 µM
Ratio IC50 (Homo sapiens): 10
Structure (SMILES): Cc1cc(C)c(CNC(=O)c2cc(C)n(-c3cccc(N4CCOCC4)c3)c2C)c(=O)[nH]1

IC50 [4]: 1.06 µM
Ratio IC50 (Homo sapiens): 10
Structure (SMILES): Cc1cc(C)c(CNC(=O)c2cc(C)n(-c3cccc(N4CCCCC4)c3)c2C)c(=O)[nH]1
